Consider five compounds from patent US12174198B2, “Methods of characterizing condensate-associated characteristics of compounds and uses thereof” (Dewpoint Therapeutics, Inc., priority 2019, dated 2024).

Structures are written as SMILES. Structures can show the parent of a compound that is named as a salt.

What all share (assay type): physicochemical
The target in data set [1] is T1, FUS-SNAP condensates (Homo sapiens, UniProt P35637).
T1 sequence (P35637 1-526): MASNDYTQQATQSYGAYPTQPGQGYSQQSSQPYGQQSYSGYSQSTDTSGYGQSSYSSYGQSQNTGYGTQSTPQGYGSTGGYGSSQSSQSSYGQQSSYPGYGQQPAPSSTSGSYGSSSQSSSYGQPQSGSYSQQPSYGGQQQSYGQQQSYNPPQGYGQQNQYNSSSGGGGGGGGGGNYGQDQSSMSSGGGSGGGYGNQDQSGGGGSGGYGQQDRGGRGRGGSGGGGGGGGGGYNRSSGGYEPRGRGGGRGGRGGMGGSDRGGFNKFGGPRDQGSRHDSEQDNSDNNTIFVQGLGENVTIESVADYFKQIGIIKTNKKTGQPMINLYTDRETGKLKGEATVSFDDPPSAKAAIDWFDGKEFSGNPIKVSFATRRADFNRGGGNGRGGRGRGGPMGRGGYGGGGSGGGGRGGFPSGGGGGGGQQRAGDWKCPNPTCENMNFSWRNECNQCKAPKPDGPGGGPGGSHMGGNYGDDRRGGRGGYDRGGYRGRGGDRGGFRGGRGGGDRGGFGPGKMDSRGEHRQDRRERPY
Briefly: Fluorescence-based assay of compound partitioning compared with the MS assay (Example 4). The following applies: condensate volume fraction of 1/1000 used. The procedure: The partition characteristics of the test compounds were also determined using the fluorescence-based assay method disclosed in Example 2.
Rhodamine 101 (Rho 101), Rhodamine 800 ([…]), Rhodamine B (Rho B), Rhodamine 123 (Rho 123), and fluorescein were assessed using both the fluorescence-based assay and the mass spectrometry-based assay, as discussed above. […] Using the measurements, a ratio of compound concentration associated with the condensate compared to compound concentration not associated with the condensate was calculated for each compound. A condensate volume fraction of 1/1000 in relation to the outside phase was used.

Data set [2] has as its system FUS-SNAP condensates versus PGL-3 condensates. Briefly: Condensate preference: ratio of FUS-SNAP I-in:I-out to PGL-3 I-in:I-out. The following applies: average FUS-SNAP I-in:I-out divided by average PGL-3 I-in:I-out. The essentials: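 For each condensate type, mean intensity inside the target condensates is divided by the intensity outside (I-in:I-out). The ratios from two experiment days are averaged. Preference is expressed as the FUS-SNAP ratio relative to the PGL-3 ratio.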

The target of data set [3] is T1, FUS-SNAP condensates. Briefly: Fluorescence imaging of dye partitioning in FUS-SNAP condensates (I-in, I-out). To be noted: for Ratio of intensity inside:outside FUS-SNAP Condensates Day 1 / Ratio of intensity inside:outside FUS-SNAP Condensates Day 2 / Ratio of intensity inside:outside FUS-SNAP Condensates Average: I-in:I-out; for Ratio of intensity inside:outside FUS-SNAP Condensates Day 1 / Ratio of intensity inside:outside FUS-SNAP Condensates Day 2 / Ratio of intensity inside:outside FUS-SNAP Condensates Average / Intensity Inside with Dye Average / Intensity Inside with Dye 1 / Intensity Inside with Dye 2 / Intensity Inside with Dye 3 / Intensity Outside with Dye Average / Intensity Outside with Dye 1 / Intensity Outside with Dye 2 / Intensity Outside with Dye 3: 10 μM dye; for Ratio of intensity inside:outside FUS-SNAP Condensates Average: average of two days; for Intensity Inside with Dye Average / Intensity Inside with Dye 1 / Intensity Inside with Dye 2 / Intensity Inside with Dye 3 / Intensity Inside Dye-No Dye: inside FUS-SNAP condensate; for Intensity Inside with Dye Average / Intensity Inside with Dye 1 / Intensity Inside with Dye 2 / Intensity Inside with Dye 3 / Intensity Outside with Dye Average / Intensity Outside with Dye 1 / Intensity Outside with Dye 2 / Intensity Outside with Dye 3: 5 μM protein; for Intensity Inside with Dye Average / Intensity Outside with Dye Average: average of three images; for Intensity Inside with Dye Average / Intensity Inside with Dye 1 / Intensity Inside with Dye 2 / Intensity Inside with Dye 3 / Intensity Inside Dye-No Dye / Intensity Outside with Dye Average / Intensity Outside with Dye 1 / Intensity Outside with Dye 2 / Intensity Outside with Dye 3 / Intensity Outside (Dye-No Dye): one day of experiments; for Intensity Inside with Dye 1 / Intensity Outside with Dye 1: image 1; for Intensity Inside with Dye 2 / Intensity Outside with Dye 2: image 2; for Intensity Inside with Dye 3 / Intensity Outside with Dye 3: image 3; for Intensity Inside Dye-No Dye / Intensity Outside (Dye-No Dye): background corrected; for Intensity Outside with Dye Average / Intensity Outside with Dye 1 / Intensity Outside with Dye 2 / Intensity Outside with Dye 3 / Intensity Outside (Dye-No Dye): outside FUS-SNAP condensate. Summed up:
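Partitioning read by spinning-disk confocal imaging (60× oil, dye-specific exposure 1-1000 ms) of condensates formed from 5 μM protein (FUS-SNAP or untagged PGL-3) plus 10 μM dye, 75 mM KCl, 1% DMSO, pH 7.25. Background-subtracted intensities inside and beside one condensate per image, three images averaged.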

On to `O=C1OC2(c3ccc(O)cc3Oc3cc(O)ccc32)c2ccccc21` [Dye 6, Fluorescein], for which the “Ratio of compound concentration in versus compound concentration out, Fluorescence-based assay” value (shortened to “Ratio of compound concentration”) in data set [1] stood at 1. The “Ratio of FUS-SNAP:PGL-3” value in data set [2] worked out at 1.5. Besides, in data set [3], the “Ratio of intensity inside:outside FUS-SNAP Condensates Day 1” value is on record as 1.7, the “Ratio of intensity inside:outside FUS-SNAP Condensates Day 2” value worked out at 1.4, the “Ratio of intensity inside:outside FUS-SNAP Condensates Average” value came to 1.5 and the “Intensity Inside with Dye Average” value worked out at 6277.1. In addition, in data set [3], the “Intensity Inside with Dye 1” value amounted to 6328.8, the “Intensity Inside with Dye 2” value is 6300.8, the “Intensity Inside with Dye 3” value is given as 6201.7 and the “Intensity Inside Dye-No Dye” value is 6141.9. Besides, in data set [3], the “Intensity Outside with Dye Average” value is 3784.7, the “Intensity Outside with Dye 1” value is on record as 3771.1, the “Intensity Outside with Dye 2” value is recorded as 3840.2 and the “Intensity Outside with Dye 3” value came to 3742.7. Also, in data set [3], the “Intensity Outside (Dye-No Dye)” value is 3680.6.
For the compound `COC(=O)c1ccccc1-c1c2ccc(=N)cc-2oc2cc(N)ccc12.Cl` [Dye 14, Rhodamine 123], the “Ratio of compound concentration” value in data set [1] is 1. Also, the “Ratio of FUS-SNAP:PGL-3” value in data set [2] was found to be 1.2. In data set [3], the “Ratio of intensity inside:outside FUS-SNAP Condensates Day 1” value is recorded as 1.3, the “Ratio of intensity inside:outside FUS-SNAP Condensates Day 2” value is 1.4, the “Ratio of intensity inside:outside FUS-SNAP Condensates Average” value was found to be 1.3 and the “Intensity Inside with Dye Average” value came to 2970.4. Also, in data set [3], the “Intensity Inside with Dye 1” value is 3123.1, the “Intensity Inside with Dye 2” value is reported as 2956.9, the “Intensity Inside with Dye 3” value amounted to 2831.2 and the “Intensity Inside Dye-No Dye” value turned out to be 2835.2. Also, in data set [3], the “Intensity Outside with Dye Average” value is given as 2277.6, the “Intensity Outside with Dye 1” value amounted to 2174.8, the “Intensity Outside with Dye 2” value is listed as 2322.7 and the “Intensity Outside with Dye 3” value is listed as 2335.1. The “Intensity Outside (Dye-No Dye)” value in data set [3] was 2173.5.
Regarding `CCN(CC)c1ccc2c(-c3ccccc3C(=O)O)c3ccc(=[N+](CC)CC)cc-3oc2c1` [Dye 16, Rhodamine B], the “Ratio of compound concentration” value in data set [1] came out at 666. The “Ratio of FUS-SNAP:PGL-3” value in data set [2] is on record as 3.0. In data set [3], the “Ratio of intensity inside:outside FUS-SNAP Condensates Day 1” value turned out to be 4.4, the “Ratio of intensity inside:outside FUS-SNAP Condensates Day 2” value is given as 3.8, the “Ratio of intensity inside:outside FUS-SNAP Condensates Average” value came out at 4.1 and the “Intensity Inside with Dye Average” value is 2041.4. In data set [3], the “Intensity Inside with Dye 1” value amounted to 2154.5, the “Intensity Inside with Dye 2” value was 2074.7, the “Intensity Inside with Dye 3” value came out at 1895.0 and the “Intensity Inside Dye-No Dye” value was 1941.7. Besides, in data set [3], the “Intensity Outside with Dye Average” value is 540.2, the “Intensity Outside with Dye 1” value stood at 546.8, the “Intensity Outside with Dye 2” value is given as 508.3 and the “Intensity Outside with Dye 3” value was found to be 565.6. In data set [3], the “Intensity Outside (Dye-No Dye)” value is 440.3.
As to `O=C([O-])c1ccccc1C1=c2cc3c4c(c2Oc2c1cc1c5c2CCCN5CCC1)CCC[N+]=4CCC3` [Dye 17, Rhodamine 101 inner salt], the “Ratio of compound concentration” value in data set [1] is given as 1,500. Besides, the “Ratio of FUS-SNAP:PGL-3” value in data set [2] is listed as 3.2. In addition, in data set [3], the “Ratio of intensity inside:outside FUS-SNAP Condensates Day 1” value was found to be 6.1, the “Ratio of intensity inside:outside FUS-SNAP Condensates Day 2” value was determined as 5.9, the “Ratio of intensity inside:outside FUS-SNAP Condensates Average” value is given as 6.0 and the “Intensity Inside with Dye Average” value is recorded as 4956.7. Moreover, in data set [3], the “Intensity Inside with Dye 1” value is recorded as 4695.6, the “Intensity Inside with Dye 2” value was 5663.6, the “Intensity Inside with Dye 3” value is 4511.0 and the “Intensity Inside Dye-No Dye” value came out at 4857.1. In data set [3], the “Intensity Outside with Dye Average” value worked out at 902.4, the “Intensity Outside with Dye 1” value is listed as 808.3, the “Intensity Outside with Dye 2” value turned out to be 1011.5 and the “Intensity Outside with Dye 3” value came out at 887.5. The “Intensity Outside (Dye-No Dye)” value in data set [3] worked out at 802.5.
On to `N#CC1=c2cc3c4c(c2Oc2c1cc1c5c2CCCN5CCC1)CCC[N+]=4CCC3` [Dye 18, Rhodamine 800], for which, in data set [1], the “Ratio of compound concentration” value was 1,000. Further, the “Ratio of FUS-SNAP:PGL-3” value in data set [2] is 3.2. Further, in data set [3], the “Ratio of intensity inside:outside FUS-SNAP Condensates Day 1” value came out at 7.6, the “Ratio of intensity inside:outside FUS-SNAP Condensates Day 2” value turned out to be 11.0, the “Ratio of intensity inside:outside FUS-SNAP Condensates Average” value worked out at 9.3 and the “Intensity Inside with Dye Average” value is on record as 15051.4. In addition, in data set [3], the “Intensity Inside with Dye 1” value was 15394.5, the “Intensity Inside with Dye 2” value came out at 13908.5, the “Intensity Inside with Dye 3” value was 15851.1 and the “Intensity Inside Dye-No Dye” value is recorded as 14919.5. Also, in data set [3], the “Intensity Outside with Dye Average” value came to 2092.2, the “Intensity Outside with Dye 1” value came out at 2064.2, the “Intensity Outside with Dye 2” value is 1988.2 and the “Intensity Outside with Dye 3” value is reported as 2224.3. Also, the “Intensity Outside (Dye-No Dye)” value in data set [3] was determined as 1959.9.
